From patent US20260191937A1, “AGENTS, COMPOSITIONS AND METHODS FOR MODULATING IMMUNITY” (The University of Queensland, priority 2022, published 2026)

B1: 6PGD: 6-phosphogluconate dehydrogenase ectopically expressed; retroviral Pgd overexpression in BMM; in b299 delivered as mRNA in DMONs (protein)
chain: MAQADIALIGLAVMGQNLILNMNDHGFVVCAFNRTVSKVDDFLANEAKGTKVVGAQSLKDMVSKLKKPRRVILLVKAGQAVDDFIEKLVPLLDTGDIIIDGGNSEYRDTTRRCRDLKAKGILFVGSGVSGGEEGARYGPSLMPGGNKEAWPHIKAIFQAIAAKVGTGEPCCDWVGDEGAGHFVKMVHNGIEYGDMQLICEAYHLMKDVLGMRHEEMAQAFEEWNKTELDSFLIEITANILKYRDTDGKELLPKIRDSAGQKGTGKWTAISALEYGMPVTLIGEAVFARCLSSLKEERVQASQKLKGPKVVQLEGSKKSFLEDIRKALYASKIISYAQGFMLLRQAATEFGWTLNYGGIALMWRGGCIIRSVFLGKIKDAFERNPELQNLLLDDFFKSAVDNCQDSWRRVISTGVQAGIPMPCFTTALSFYDGYRHEMLPANLIQAQRDYFGAHTYELLTKPGEFIHTNWTGHGGSVSSSSYNA
notes: 6-phosphogluconate dehydrogenase ectopically expressed; in b299 delivered as mRNA in DMONs

What was measured:
[1] = system: uropathogenic Escherichia coli (UPEC) strain EC958; assay: Growth of UPEC strain EC958 with or without H2O2 oxidative stress (OD600, 12 h); type: cell-based
Description: FIG. 5 is a graphical representation showing effect of increasing RL5P concentrations on the growth of uropathogenic Escherichia coli (UPEC) strain EC958 under conditions of oxidative stress in the form of 0.8 mM H2O2. (A) EC958 was cultured±H2O2 (0.8 mM) in the presence of the indicated concentrations of RL5P for 12 h, during which growth was assessed (A600 at the indicated time points); (B) Area under the curve analysis for the 12 h period was calculated thereafter and is presented in FIG. 5B. Data are compiled from four independent experiments and are presented as mean±SEM. Each symbol represents a different experiment. Statistical significance for (B) was determined using repeated measure two-way ANOVA followed by non-parametric Kruskal Wallis test followed by Dunn's multiple comparison test (ns—not significant; * p<0.05; **** p<0.0001).
FIG. 6 is a graphical representation showing effect of increasing RL5P concentrations on the growth of UPEC under conditions of oxidative stress in the form of 1 mM H2O2. (A) EC958 was cultured±H2O2 (1 mM) in the presence of the indicated concentrations of RL5P for 12 h, during which growth was assessed (A600 at the indicated time points); (B) EC958 was cultured in the presence of the indicated concentrations of RL5P and the absence of H2O2 for 12 h, during which growth was assessed (A600 at the indicated time points). Data are compiled from four independent experiments and are presented as mean±SEM.
FIG. 7 is a graphical representation showing the effect of RL5P and 6-phosphogluconate (6PG) on the on the growth of UPEC under conditions of oxidative stress in the form of H202. (A) EC958 was cultured±H2O2 (0.8 mM) in the presence of the indicated concentration of RL5P or 6PG for 12 h, during which growth was assessed (A600 at the indicated time points); (B). Each symbol represents a different experiment. Statistical significance for (B) was determined using repeated measure two-way ANOVA followed by non-parametric Kruskal Wallis test followed by Dunn's multiple comparison test (ns—not significant; * p<0.05; **** p<0.0001).
All bacterial strains were cultured at 37° C. on solid or liquid Luria-Bertani (LB) medium. The non-pathogenic E. coli K12 strain MG1655 (Blattner et al., 1997. Science. 277:1453-1462) and EC958, a representative strain of the globally-disseminated multidrug-resistant ST131 clone isolated from the urine of a patient with a urinary tract infection (Totsika et al., 2011, PloS one. 6:e26578-e26578; Petty et al., 2014, Proc Natl Acad Sci USA. 111:5694-5699), were used in this study. […] Bacterial growth was assessed by monitoring OD600 using a POLARstar Omega (BMG Labtech) at 20-30 min intervals.

[2] = system: Human monocyte-derived macrophages (HMDM); assay: Cytokine release (ELISA) from human monocyte-derived macrophages pre-treated with RL5P; type: cell-based
Description: (§1) FIG. 3 is a graphical representation showing the effect of R5LP treatment of macrophages on the release of cytokines IL-1β and TNF. (A-B) Human monocyte-derived macrophages (HMDM) were pre-treated with ribulose-5-phosphate (RL5P) for 16 h at the indicated concentrations. Nigericin-triggered IL-1β release from LPS-primed cells (A), as well as LPS-induced TNF (B) in culture supernatants were assessed by ELISA. (C-D) BMM were pre-treated for 16 h with RL5P at the indicated concentrations. Nigericin-triggered IL-1β release from LPS-primed cells (C), as well as LPS-induced TNF (D) in culture supernatants were assessed by ELISA. Data were compiled from six independent experiments (or donors) and are presented as mean±S.E.M. Statistical significance was determined using two-way ANOVA followed by Sidak's multiple comparison test (ns—not significant; * p<0.05; ** p<0.01).
(§2) FIG. 4 is a graphical representation showing the effect of R5LP treatment of macrophages on the release of cytokine IL-6. HMDM and BMM were pre-treated with the indicated concentrations of RL5P for 16 h, after which they were either stimulated with LPS (10 ng/mL) or infected with uropathogenic Escherichia coli (UPEC) strain EC958 (MOI 100) for 4 h. Supernatants were then assessed for secreted IL-6 by ELISA. Data were compiled from six independent experiments (or donors) and are presented as mean±SEM. Panel A presents IL-6 release (ng/mL), Panel B present IL-6 release normalized to LPS alone. Statistical significance was determined using repeated measure two-way ANOVA followed by Dunnett's multiple comparison test (A-B) (ns—not significant).
(§3) BMM were generated from indicated strains of mice, as previously described (Das Gupta et al., 2020, Cell Rep. 30:2712-2728.e2718). Bone marrow cells were cultured for 6 days in RPMI-1640 media (Thermo Fisher Scientific) supplemented with 10% FCS, 50 U/mL penicillin, 50 μg/mL streptomycin and 2 mM L-glutamine, in the presence of recombinant human colony-stimulating factor 1 (CSF-1), at either 1×10^4 U/mL (Chiron) or 150 ng/mL (The University of Queensland Protein Expression Facility). On day 6, BMM were harvested and replated at an appropriate density with fresh CSF-1, with cells being used in experiments on the following day. […]
(§4) BMM (5×10^5 cells/mL) or HMDM (5×10^5 cells/mL) were treated as indicated in individual figure legends. Supernatants were collected and assessed for secreted TNF. […] Supernatants were collected and analyzed for levels of IL-1β. […]

[3] = system: bone marrow-derived macrophages (BMM); assay: Cytokine release (ELISA) from mouse bone marrow-derived macrophages pre-treated with RL5P; type: cell-based
Description: as §1, §2, §3, §4

[4] = system: bone marrow-derived macrophages (BMM); assay: Retroviral overexpression of Pgd (6PGD) in BMM, cytokines by ELISA; type: cell-based, mouse
Description: FIG. 2 is a graphical representation showing the effect of over expression of the 6PGD gene on the release of cytokines IL-1β, TNF and IL-6. The Pgd gene was retrovirally overexpressed in BMM. Nigericin-triggered IL-1β release from LPS-primed cells (A), as well as LPS-induced TNF (B) and IL-6 (C), in culture supernatants were assessed by ELISA. Data were compiled from five independent experiments and are presented as mean±S.E.M. Statistical significance was determined using two-way ANOVA followed by Sidak's multiple comparison test (ns—not significant; * p<0.05; ** p<0.01).
Retroviral overexpression of target genes in primary macrophages was performed as previously described (Das Gupta et al., 2020, Cell Rep. 30:2712-2728.e2718). Briefly, 2×10^6 PlatE cells were transfected with 40 μg of the respective retroviral expression vectors using Lipofectamine 2000 (Thermo Fisher Scientific). At 24 h post-transfection, media were replaced and cells were incubated at 32° C. for 48 h for optimal virus production. Viral supernatants were filtered through a […] Millex-HV PVDF syringe filter (Merck) and supplemented with 1M HEPES, 10 μg/mL polybrene and CSF-1. Bone marrow progenitors treated with CSF-1 for 2 days were spin-infected (1000 g, 2 h, 35° C.) with viral supernatants in 6-well non-tissue culture plates. The cells were immediately supplemented with complete RPMI media, then incubated at 37° C. for 48 h. At 48 h post-transduction, cells were supplemented with complete RPMI media. On day 6 of macrophage differentiation, adherent cells were collected and plated for subsequent experiments.
BMM (5×10^5 cells/mL) or HMDM (5×10^5 cells/mL) were treated as indicated in individual figure legends. Supernatants were collected and assessed for secreted TNF. To assess secreted IL-1β by ELISA, cells were further treated with Nigericin for 1 h (2 h for HMDMs). Supernatants were collected and analyzed for levels of IL-1β. For experiments comparing macrophages derived from mice of different genotypes, MTT assays were performed in parallel to control for any differences in plating densities.

Row | Molecule | UPEC growth under oxidative stress ([1]; 0.8 mM H2O2) | inducible TNF production (secreted TNF) ([2]; HMDM pre-treated with RL5P for 16 h, ELISA) | Nigericin-triggered IL-1β release from LPS-primed cells ([2]; HMDM pre-treated with RL5P for 16 h, LPS, ELISA) | Suppression of IL-1β production in cells responding to Escherichia coli ([2]; HMDM, E. coli instead of LPS, effect in HMDM reduced to a lesser extent than in BMM) | inducible IL-6 production ([2]; HMDM, RL5P 16 h, then LPS (10 ng/mL) or UPEC EC958 (MOI 100) 4 h, ELISA) | inducible TNF production (secreted TNF) ([3]; BMM pre-treated with RL5P for 16 h, ELISA) | Nigericin-triggered IL-1β release from LPS-primed cells ([3]; BMM pre-treated with RL5P for 16 h, LPS, ELISA) | Suppression of IL-1β production in cells responding to Escherichia coli ([3]; BMM, E. coli instead of LPS) | inducible IL-6 production ([3]; BMM, RL5P 16 h, then LPS (10 ng/mL) or UPEC EC958 (MOI 100) 4 h, ELISA) | UPEC growth under oxidative stress ([1]; 1 mM H2O2) | UPEC growth in the absence of oxidative stress ([1]; no H2O2) | LPS-induced IL-6 [4] | LPS-induced TNF [4] | inducible IL-1β response ([4]; Nigericin-triggered release from LPS-primed cells)
1 | O=C(O)[C@H](O)[C@@H](O)[C@H](O)[C@H](O)COP(=O)(O)O [6PG, 6-phosphogluconate, reference compound] | did not affect UPEC growth | – | – | – | – | – | – | – | – | – | – | – | – | –
2 | O=C(CO)[C@H](O)[C@H](O)COP(=O)([O-])[O][Na+] [RL5P, Disodium [(2R,3R)-2,3,5-trihydroxy-4-oxopentyl]phosphate] | significantly impaired E. coli growth in a dose-dependent manner | dramatically reduced secreted TNF levels | suppressed LPS-inducible IL-1β production | much less pronounced | did not affect inducible IL-6 production | modest | suppressed LPS-inducible IL-1β production | much less pronounced | did not affect inducible IL-6 production | also apparent | did not affect UPEC growth | – | – | –
3 | B1 | – | – | – | – | – | – | – | – | – | – | – | unaffected | significantly reduced LPS-induced TNF | attenuated the inducible IL-1β response
